This note sets out measurements from patent EP0418674A1, “Pharmaceutical preparations for enhanced absorption of antibacterial compounds” (priority 1989, dated 1991).

A word on the Cmax: it is the maximum level reached in the sampled fluid or tissue.

The nature of data set [1]: Rectal absorption in vivo (monkeys): plasma level of the antibiotic after suppository. Particulars: for Cmax: both sexes, monkey, plasma, read-out: Cmax Bereich. From the text: Für diesen Versuch wurden männliche und weibliche erwachsene Affen (Papio anubis und Papio hamadryas) im Gewicht vom 12-27 kg verwendet. die über Nacht vor der Verabreichung des Antibiotikums fasten gelassen wurden, dann durch i.m.-Injektionen von Ketamin-Hydrochlorid vor der Verabreichung des Antibiotikums sediert wurden. Aus den nachstehend beschriebenen Formulierungen wurden Suppositorien hergestellt die den Tieren verabreicht wurden. Die Rektalöffnungen wurden dann mit Klebeband verschlossen, um ein Herausdrücken der Suppositorienmasse zu vermeiden.
Zur Messung der Resorption des Antibiotikums in den Blutstrom wurden Blutproben aus der Femoralregion vor der Verabreichung des Antibiotikums und 15, 30, 60, 120, 240, 360 und 480 Minuten danach entnommen. Proben wurden zentrifugiert und wie oben beschrieben vermessen. Die Resultate sind in Tabelle 3 zusammengestellt: Tabelle 3

Data set [2] in a line: Oral absorption in vivo (monkeys): plasma concentration of Ceftriaxon after enteric-coated hard gelatin capsules by gavage. Particulars: Kontrollwert: 300 mg Ceftriaxon-Na in the same capsule without absorption enhancer. Also on record: species or system Papio anubis und Papio hamadryas. The source says: Erwachsene Affen (Papio anubis und Papio hamadryas) im Gewicht von 12-30 kg wurden über Nacht fasten gelassen, dann durch i.m.-Injektion von Ketaminhydrochlorid vor der Verabreichung des Antibiotikums sediert. Jeder Affe erhielt vier Hartgelatinekapseln durch Schlundsonde mit der folgenden Zusammensetzung:
Die Kapseln waren mit einem Ueberzug von Polyvinylacetatphthalat (etwa 8% des Kapselgewichtes) versehen.
Die Plasmakonzentration von Ceftriaxon wurde vor der Verabreichung und 10, 20, 40, 60, 120, 180 und 240 Minuten danach bestimmt.

Data set [3] can be described thus: Enteral absorption in vivo (rats): plasma level of the antibiotic after intraduodenal injection, agar plate bioassay. Particulars: rat, 20 mg/kg, enteral (duodenum), Dosis = 5 mg/0,5 ml. The protocol: Weibliche Ratten im Gewicht von etwa 250 g wurden über Nacht fasten gelassen und mit Metofan anästhesiert. Die Antibiotika wurden in Lösung mit oder ohne Resorptionsverstärker nach Bauchschnitt in das Duodenum unterhalb des Magenausgangs injiziert. Für Vergleichszwecke wurde die Lösung alternativ intravenös in die Schwanzvene appliziert. Die Antibiotika wurden in Wasser gelöst, so dass die Lösungen (mit oder ohne Verstärker) 20 mg/kg, etwa 5 mg pro Ratte, enthielten.
Die Konzentration des Antibiotikums im Plasma der Ratte wurde nach verschiedenen Zeitintervallen nach intravenöser oder enteraler Verabreichung bestimmt. Blutproben wurden aus der Schwanzvene des Versuchstiers vor der Verabreichung des Antibiotikums und 5, 10, 20, 40, 60, 120, 240 und 360 Minuten danach entnommen, danach zentrifugiert und das Plasma bis zur Analyse eingefroren.
Antibiotika, die nicht an Plasma gebunden waren, wurden mit Wasser verdünnt und gegen in Wasser hergestellte Standards geprüft. Für gebundene Antibiotika wurde der Einfluss der Proteinbindung eliminiert durch Verdünnen aller Standardlösungen und Proben im gesammelten Plasma. Im Fall von Ceftriaxon und Cefazolin wurde der Effekt der Bindung dadurch berücksichtigt, dass Plasmaproben mit Acetonitril mit einem Verdünnungsfaktor 1:12 deproteinisiert und gegen eine Standardkurve in Wasser verdünnt gemessen wurden. Antibiotikaspiegel wurden wie in Tabelle 1 angegeben auf Agarplatten ermittelt. Tabelle 1
Die Platten wurden bei 37°C über Nacht bebrütet und die Hemmzonen auf die nächsten […] abgelesen. Die Berechnungen wurden mittels einer Autoassaymaschine (Giles Scientific, Inc., New York) vorgenommen. Vergleiche J.V. Bennett et al., Applied Microbiology 14, 170-177 (1966).

The mark [4] stands for this setting: 500 mg, rectal suppository, Mit Resorptionsverstärker, Formulierung C (500 mg antibiotic, Labrasol 250 mg, Caprylsäure 200 mg).
[5] abbreviates: rectal suppository, Mit Resorptionsverstärker, Formulierung D (500 mg antibiotic, Labrasol 250 mg, Caprylsäure 100 mg, Natriumcaprylat 100 mg).
[6] abbreviates: rectal, Kontrolle ohne Resorptionsverstärker.
The mark [7] stands for this setting: rectal suppository, Mit Resorptionsverstärker, Formulierung C (500 mg antibiotic, Labrasol 250 mg, Caprylsäure 200 mg).

In the case of `CO[C@@]1(NC(=O)C2SC(=C(C(N)=O)C(=O)O)S2)C(=O)N2C(C(=O)O)=C(CSc3nnnn3C)CS[C@@H]21` (some centres unmarked) [Cefotetan], the values for the Cmax in data set [1] (setting [4]), in data set [1] (setting [5]) and in data set [1] (setting [6]) were 4300 to 21100 ng/mL, 2500 to 61500 ng/mL and 2400 to 10100 ng/mL, respectively. The “% Bioverfügbarkeit” value in data set [1] (setting [7]) turned out to be 11.4 ± 7.4%; in data set [1] (setting [5]), 24.1 ± 12.8%; in data set [1] (setting [6]), 4.9 ± 3.1%. Also, the “Cmax Bereich” value in data set [1] (rectal, Kontrolle ohne Resorptionsverstärker, listed as Cefotetran) was 3400 to 10100 ng/mL.

Regarding `CO/N=C(\C(=O)N[C@@H]1C(=O)N2C(C(=O)O)=C(CSc3nc(=O)c(=O)[nH]n3C)CS[C@H]12)c1csc(N)n1` [Ceftriaxon-Na, Ceftriaxon-Natrium], in data set [2], the Bioverfügbarkeit was 0%.

For `CO/N=C(\C(=O)N[C@@H]1C(=O)N2C(C(=O)O)=C(CSc3nc(=O)c(=O)[nH]n3C)CS[C@H]12)c1csc(N)n1` [Ceftriaxon], the Cmax in data set [1] (setting [4]) was 21600 to 46600 ng/mL; in data set [1] (setting [5]), 16300 to 38300 ng/mL; in data set [1] (setting [6]) it was 300 to 9000 ng/mL; in data set [3] (female, plasma, other: intraduodenal injection (enteral), Labrasol + Caprylsäure + Natriumcaprylat, weight ratio 4:1:1) it was 52200 ± 22500 ng/mL; in data set [3] (female, plasma, other: intraduodenal injection (enteral), Labrasol + Caprylsäure, weight ratio 2:1), 57000 ± 10200 ng/mL. Also, the “% Bioverfügbarkeit” value in data set [1] (setting [7]) is 17.3 ± 4.8%; in data set [1] (setting [5]), 17.1 ± 5.0%; in data set [1] (setting [6]), 4.3 ± 2.8%.

As for `CC1(C)S[C@@H]2[C@H](NC(=O)Cc3ccccc3)C(=O)N2[C@H]1C(=O)O` [Penicillin G], the Cmax in data set [3] (in vivo, Labrasol + Caprylsäure + Natriumcaprylat, weight ratio 4:1:1) was found to be 2900 ± 1600 ng/mL; in data set [3] (in vivo, Labrasol + Caprylsäure, weight ratio 2:1), 7200 ± 700 ng/mL.

For `CN[C@H](CC(C)C)C(=O)N[C@H]1C(=O)N[C@@H](CC(N)=O)C(=O)N[C@H]2C(=O)N[C@H]3C(=O)N[C@H](C(=O)N[C@H](C(=O)O)c4cc(O)cc(O)c4-c4cc3ccc4O)[C@H](O)c3ccc(c(Cl)c3)Oc3cc2cc(c3O[C@@H]2O[C@H](CO)[C@@H](O)[C@H](O)[C@H]2O[C@H]2C[C@](C)(N)[C@H](O)[C@H](C)O2)Oc2ccc(cc2Cl)[C@H]1O` [Vancomycin], the peak concentration (Cmax) was 5300 ± 2100 ng/mL in data set [3] (female, in vivo, Labrasol + Caprylsäure + Natriumcaprylat, weight ratio 4:1:1) and 8000 ± 2300 ng/mL in data set [3] (female, in vivo, Labrasol + Caprylsäure, weight ratio 2:1).
